# In patent US20220016049A1, “TISSUE REPAIR” (Regenall Limited, priority 2019, published 2022):
# Legend:
# Tendon injury = Tendon injury in a horse, recovery following treatment with vitamin A (case report); type: in vivo; conditions: retinyl palmitate oral 750,000 IU twice daily, at least 4 weeks
# From the text: Tendon Injury—Recovery Following Treatment with Vitamin A [table] [table] Treatment with Vitamin A was initiated approximately 20 days after the initial injury. Retinyl palmitate (93.8% Retinol Equivalent) Oral 750,000 IU […] Continuing (at least 4 weeks) Functional recovery has been good considering the severity of the lesion. […] It is not uncommon for such lesions to take between 12 to 18 months to heal.
# Spinal cord injury = experiment: Patient-reported outcome measure, spinal cord injury, recovery following treatment with vitamin A; type: in vivo, human
# From the text: Patient-Reported Outcome Measure
# Spinal Cord Injury—Recovery Following Treatment with Vitamin A
# Vitamin A 50,000 IU (from Retinyl palmitate and fish liver oil)
# Starting in October 2018. For three months taking vitamin A 10,000×3. Increasing in end January 2019 10,000×5.
# Vitamin A (from cod liver oil and vitamin A palmitate)
# For 3 months 3 tablets a day and for 3 months 5 tablets a day
# 21 years later in February 2019
# I take 50,000 IU in one administration in the morning daily
# Continuing: Almost 2 months
# [1] = horse; cited from earlier work
substance,measurement,setting,value
Vitamin A,Functional recovery,"Tendon injury; Horse subject 1 (polo pony, 14 years), started approximately 20 days after injury",good
same,Size of the lesion (ultrasonography),Tendon injury; Horse subject 1,good reduction in the size of the lesion
same,Pain reduction (right lower back),"Spinal cord injury; Human Subject 1, injury 1963 (T4), oral 50,000 IU once daily, 3 months, started 56 years after injury",10-15%
same,Duration of pain,"Spinal cord injury; Human Subject 1, oral 50,000 IU once daily, 3 months",much less
same,"First recovery found (walking control, balance)","Spinal cord injury; Human Subject 2, spinal stenosis, both legs paralyzed, oral 30,000 IU per day for 3 months from October 2018",more walking control and balance
same,"Strength, balance and movement control","Spinal cord injury; Human Subject 2, March 2019, oral 50,000 IU per day from end of January 2019","much stronger, more balanced, more movement control"
same,Walking without any support on even level,"Spinal cord injury; Human Subject 2, beginning of April 2019, oral 50,000 IU per day",30-50 meters
same,Improvement of pain level,"Spinal cord injury; Human Subject 3, disc/nerve pain around knee, oral 50,000 IU daily, 4-5 months",80%
same,Neck flexibility,"Spinal cord injury; Human Subject 4, injury at C4/C5 in 1998, oral 50,000 IU daily, almost 2 months, started 21 years after injury",much more flexible
same,Neck aching,"Spinal cord injury; Human Subject 4, oral 50,000 IU daily, almost 2 months",largely disappeared
same,Vitamin A toxicity level,[1],"around 1,000 IU/kg body weight (BW)/day"
